Reference: patent US20130053243A1, “PLANTS HAVING INCREASED TOLERANCE TO HERBICIDES” (BASF SE, priority 2010, published 2013)

Assays:
[1] = tested on: transgenic soybean plants, event LG4628 (CrHPPD2); experiment: Greenhouse spray test, transgenic soybean T0 cuttings; type: in vivo, Glycine max; conditions: two weeks after treatment, scale 0 (no injury) to 9 (complete death)
Description: (§1) Transgenic plants expressing heterologous HPPD or HST enzymes are tested for tolerance against coumarone-derivative herbicides in greenhouse experiments.
(§2) For post emergence treatment, the test plants are first grown to a height of 3 to 15 cm, depending on the plant habit, and only then treated with the herbicides. For this purpose, the test plants are either sown directly and grown in the same containers, or they are first grown separately and transplanted into the test containers a few days prior to treatment.
(§3) For testing of T0 plants, cuttings can be used. In the case of soybean plants, an optimal shoot for cutting is about 7.5 to 10 cm tall, with at least two nodes present. Each cutting is taken from the original transformant (mother plant) and dipped into rooting hormone powder (indole-3-butyric acid, IBA). The cutting is then placed in oasis wedges inside a bio-dome. Wild type cuttings are also taken simultaneously to serve as controls. The cuttings are kept in the bio-dome for 5-7 days and then transplanted to pots and then acclimated in the growth chamber for two more days. Subsequently, the cuttings are transferred to the greenhouse, acclimated for approximately 4 days, and then subjected to spray tests as indicated. Depending on the species, the plants are kept at 10-25° C. or 20-35° C. The test period extends over 3 weeks. During this time, the plants are tended and their response to the individual treatments is evaluated. Herbicide injury evaluations are taken at 2 and 3 weeks after treatment. Plant injury is rated on a scale of 0 to 9, 0 being no injury and 9 being complete death.

[2] = tested on: soybean plants, wild type (non-transformed); experiment: Greenhouse spray test, soybean T0 cuttings; type: in vivo, Glycine max; conditions: no transgene, two weeks after treatment, scale 0 (no injury) to 9 (complete death)
Description: as §1, §2, §3

[3] = molecular target: T1, Arabidopsis HPPD (Arabidopsis thaliana, UniProt P93836); experiment: HPPD activity assay (homogentisic acid by HPLC), wildtype enzyme; type: biochemical; conditions: Table 11, calculated from IC50 with Cheng-Prusoff equation, read-out: dissociation constant Ki
T1 construct: His6 (N); made in house; host or cells: E. coli BL21 (DE3)
T1 sequence (P93836 1-445): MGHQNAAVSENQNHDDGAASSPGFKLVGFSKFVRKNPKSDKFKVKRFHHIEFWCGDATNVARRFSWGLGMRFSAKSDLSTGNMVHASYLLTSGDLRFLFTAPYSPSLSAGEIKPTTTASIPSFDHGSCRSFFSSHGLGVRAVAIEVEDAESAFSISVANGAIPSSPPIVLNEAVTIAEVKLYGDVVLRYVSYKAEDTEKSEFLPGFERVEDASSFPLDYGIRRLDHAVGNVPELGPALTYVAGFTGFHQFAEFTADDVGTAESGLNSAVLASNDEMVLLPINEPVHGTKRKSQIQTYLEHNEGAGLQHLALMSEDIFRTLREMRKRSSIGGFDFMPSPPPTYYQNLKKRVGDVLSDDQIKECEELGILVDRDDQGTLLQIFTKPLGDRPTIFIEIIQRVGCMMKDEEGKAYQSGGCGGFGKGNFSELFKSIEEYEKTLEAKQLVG
Description: HPPD produces homogentisic acid and CO2 from 4-hydroxyphenylpyruvate (4-HPP) and O2. The activity assay for HPPD is based on the analysis of homogentisic acid by reversed phase HPLC.
The assay mixture can contain 150 mM potassium phosphate buffer pH 7.0, 50 mM L-ascorbic acid, 1 μM FeSO4 and 7 μg of purified enzyme in a total volume of 1 ml.
Inhibitors are dissolved in DMSO (dimethylsulfoxide) to a concentration of 20 mM or 0.5 mM, respectively. From this stock solution serial five-fold dilutions are prepared in DMSO, which are used in the assay. The respective inhibitor solution accounts for 1% of the assay volume. Thus, final inhibitor concentrations range from 200 μM to 2.5 nM or from 5 μM to 63 pM, respectively.
After a preincubation of 30 min the reaction is started by adding 4-HPP to a final concentration of 0.1 mM. The reaction is allowed to proceed for 120 min at room temperature. The reaction is stopped by addition of 100 μl of 4.5 M phosphoric acid.
The sample is extracted on an Oasis® HLB cartridge 3 cc/60 mg (Waters) that was preequilibrated with 63 mM phosphoric acid. L-ascorbic acid is washed out with 3 ml of 63 mM phosphoric acid. […]
10 μl of the eluate is analyzed by reversed phase HPLC on a Symmetry® C18 column (particle size 3.5 μm, dimensions 4.6×100 mm; Waters) using 5 mM H3PO4/15% ethanol (w/w) as an eluent.
Homogentisic acid is detected electrochemically and quantified by measuring peak areas (Empower software; Waters).
Activities are normalized by setting the uninhibited enzyme activity to 100%. IC50 values are calculated using non-linear regression. […]
5 μl of the cleared sample is analyzed on an Atlantis T3 column (particle size 3 μm, dimensions 3×50 mm; Waters) by isocratic elution using 90% 10 mM NaH2PO4 pH 2.2, 10% methanol (v/v).
HGA is detected electrochemically at 750 mV (mode: DC; polarity: positive) and quantified by integrating peak areas (Empower software; Waters).
Inhibitors are dissolved in DMSO (dimethylsulfoxide) to a concentration of 0.5 mM. […] IC50 values are calculated using non-linear regression. […]

Structure (SMILES) | Injury evaluation (plant injury rating) ([1]; 6.25 g/ha) | Injury evaluation (plant injury rating) ([1]; 12.5 g/ha) | Injury evaluation (plant injury rating) ([2]; 6.25 g/ha) | Injury evaluation (plant injury rating) ([2]; 12.5 g/ha) | Ki [3] | Injury evaluation (plant injury rating) ([1]; 50 g/ha) | Injury evaluation (plant injury rating) ([1]; 100 g/ha) | Injury evaluation (plant injury rating) ([1]; 200 g/ha) | Injury evaluation (plant injury rating) ([2]; 50 g/ha) | Injury evaluation (plant injury rating) ([2]; 100 g/ha) | Injury evaluation (plant injury rating) ([2]; 200 g/ha)
Cc1c(C(=O)c2cnn(C)c2O)ccc(S(C)(=O)=O)c1C1=NOCC1 [Topramezone, reference compound] | 5 | 6 | 7 | 7 | 4 nM |  |  |  |  |  | 
CC1=NOC(c2c(Cl)ccc(C3=C(O)c4ncccc4N(CC(F)F)S3(=O)=O)c2Cl)C1 (stereo not drawn) [Inhibitor 1, 3-[2,4-dichloro-3-(3-methyl-4,5-dihydroisoxazol-5-yl)phenyl]-1-(2,2-difluoroethyl)-2,2-dioxo-pyrido[3,2-c]thiazin-4-ol] |  |  |  |  | 3 nM | 4 | 3 | 4 | 4.5 | 5.5 | 6
